The subject of assay [1] is IRF3 translocation induced by dsDNA (ISD). Kind of assay: IRF3 translocation inhibition, confocal/immunofluorescence after ISD transfection. The settings on record: Homo sapiens, % means blockage of IRF3 translocation induced by dsDNA (ISD). It counts as cell-based. On the procedure:
Inhibition of IFNβ expression was measured by Luciferase induction at 24 hours after transfection of ISD. […]. […] FIG. 3H qPCR of IFNβ 1 performed in MEFs treated same as in FIG. 3A. FIG. 3I qPCR of CCL5 performed in MEFs treated same as in FIG. 3A.
Immunofluorescence Microscopy: Cells were cultured and treated in their appropriate media on Lab-Tek II chamber slides. Cell were fixed with 4% paraformaldehyde for 15 minutes in at 37° C. and permeabilized with 0.05% Triton X-100 for 5 minutes at room temperature. Immunostaining was performed with rabbit-anti-STING polyclonal, rabbit-anti-IRF3 (Santa Cruz Biotechnology) or rabbit-anti-p65 (Cell Signaling) followed by fluorescence conjugated secondary antibodies (FITC-goat-anti-rabbit) (Invitrogen).

For the next assay, the system named is pIRF3, pSTING. Kind of assay: Western blot of pIRF3, pSTING, pTBK1 after ISD transfection in hTERT cells. In kind it is cell-based, human. The following applies: Homo sapiens. As for the experimental part:
FIG. 1C are photographs showing Western blot analysis of STING, phospho-TBK1 (pTBK1) and phospho-IRF3 (pIRF3) performed at 6 hours after ISD transfection with/without W1 treatment same as FIG. 1A, Mock is shown (210), ISD treatment only (220) was used as a control, according to an embodiment of the invention;
Immunoblot analysis: Equal amounts of proteins were resolved on sodium dodecyl sulfate (SDS)-Polyacrylamide gels and then transferred to polyvinylidene fluoride (PVDF) membranes (Millipore). After blocking with 5% Blocking Reagent, membranes were incubated with various primary antibodies (and appropriate secondary antibodies). The image was resolved using an enhanced chemiluminescence system ECL (Thermo Scientific) and detected by autoradiography (Kodak). Antibodies: rabbit polyclonal antibody against STING was developed in our laboratory as described previously in Ishikawa et al, 2008; other antibodies were obtained from following sources: β-actin (Sigma Aldrich), p-IRF3 (Cell Signaling), IRF3 (Santa Cruz Biotechnology), p-p65 (Cell Signaling), p65 (Cell Signaling), p-TBK1 (Cell Signaling), TBK1 (Abcam), cGAS (Cell Signaling).
(In western blotting, separated proteins are transferred to a membrane and probed.)

For assay [2], the system named is IFNβ expression (type I IFNβ promoter driving luciferase). Nature of the assay: IFNβ promoter luciferase assay in hTERT-pIFNβ-Glu cells transfected with ISD. It counts as cell-based, human. The following applies: Homo sapiens. On the procedure:
Inhibition of IFNβ expression was measured by Luciferase induction at 24 hours after transfection of ISD, DMSO is shown (230), ISD treatment only (220) was used as a control, according to an embodiment of the invention;
Inhibition of IFNβ expression was measured by Luciferase induction at 24 hours after transfection of ISD, Mock is shown (210), ISD treatment only (220) was used as a control, according to an embodiment of the invention;
Identification of small molecule inhibitors of STING. In the presence of cytosolic DNA species, STING becomes activated to drive the transcription of cytokines such as type I IFN. Compounds binding to STING via TSA were subsequently examined for their ability to prevent cytosolic DNA species from activating the type I interferon (IFN) promoter, using a live cell assay. This assay comprised immortalized human fibroblasts (hTERT) that were stably transfected with the type I IFN promoter driving luciferase as well as the CMV promoter driving SEAP (hTERT-pIFNβ-Glu). The live cell assay has previously been disclosed in PCT/US2019/025380 entitled IFN-Beta Reporter System for Immortalized Primary Cells inventor Glen N. Barber, which was filed Apr. 2, 2018 and published as WO2019195285, and which is herein incorporated by reference in its entirety and for all purposes. The ability of the small molecules to prevent activation of the type I IFN promoter and the transcription of luciferase, but not SEAP in response to cytosolic DNA species was assessed. The activation of STING, typically by CDNs, in turn activates the transcription factors NF-κB and IRF3, both of which are required to induce the transcriptional stimulation of the Type I IFN promoter, but not the CMV promoter as IRF3 and NF-kB transcription factor binding sites are not contained in the CMV promoter. The assay identified the small molecule Compound W1 in the first screen (HTS), where the level of luciferase was not able to activate the type I IFN promoter or induce the expression of luciferase (see Table I and Table II).
Inhibition of IFNβ expression was measured by Luciferase induction at 24 hours after transfection of ISD. ISD only treatment was used as control.
Inhibition of IFNβ expression was measured by Luciferase induction at 24 hours after transfection of ISD, Mock is shown (210), ISD treatment only (220) was used as a control.
Luciferase assay: hTERT-BJ1 Telomerase Fibroblasts stably expressing the luciferase gene under the control of the interferon-beta promoter and SEAP gene under control of the CMV promoter) (hTERT-pIFNβ-Glu) were generated by the Barber laboratory. Luciferase assay was performed using Secrete-Pair Dual Luminescence Assay Kit from GeneCopoeia following the manufacturer's protocol.

For eight compounds, inhibition results are on record in patent publication US20240270737A1, “SMALL MOLECULAR INHIBITORS OF STING SIGNALING COMPOSITIONS AND METHODS OF USE” (STINGINN INC., priority 2021, published 2024).

In general, inhibition refers to the drop in the measured response relative to a control, in per cent. On to `Cc1cc(N2CCN(Cc3ncc(-c4ccccc4)s3)CC2)nc(N(C)C)n1` [Compound W20, N,N,4-trimethyl-6-{4-[(5-phenyl-1,3-thiazol-2-yl)methyl]piperazin-1-yl}pyrimidin-2-amine], for which the inhibition at 25 µM in assay [1] lay within 40 to 50%. The inhibition at 10 µM with pIRF3, pSTING is below 10%. Moreover, in assay [2], the inhibition at 5 µM was 79%.
The corresponding values for `COc1ccc(-c2nc(CN3CCN(c4cc(C)nc(N(C)C)n4)CC3)cs2)c(OC)c1` [Compound W13, 4-(4-{[2-(2,4-dimethoxyphenyl)-1,3-thiazol-4-yl]methyl}piperazin-1-yl)-N,N,6-trimethylpyrimidin-2-amine] are 40 to 50%, 90 to 100% and 30%.
Consider `Cc1cc(N2CCN(Cc3csc(-c4ccc(C(F)(F)F)cc4)n3)CC2)nc(N(C)C)n1` [Compound W11, N,N,4-trimethyl-6-[4-({2-[4-(trifluoromethyl)phenyl]-1,3-thiazol-4-yl}methyl)piperazin-1-yl]pyrimidin-2-amine], for which the inhibition at 25 µM in assay [1] is 90 to 100%. Also, in the assay with pIRF3, pSTING, the inhibition at 10 µM was 90 to 100%. Further, the inhibition at 5 µM in assay [2] was 38%.
As for `COc1ccc(-c2nc(CN3CCN(c4nc(C)cc(C(C)C)n4)CC3)cs2)cc1OC` [Compound W5, 2-(4-{[2-(3,4-dimethoxyphenyl)-1,3-thiazol-4-yl]methyl}piperazin-1-yl)-4-methyl-6-(propan-2-yl)pyrimidine], in the assay on pIRF3, pSTING, the inhibition at 10 µM is below 10%. Besides, the inhibition at 5 µM in assay [2] came to 18%.
For `Cc1cc(N2CCN(Cc3csc(-c4ccc(Cl)cc4)n3)CC2)nc(N(C)C)n1` [Compound W14, 4-(4-{[2-(4-chlorophenyl)-1,3-thiazol-4-yl]methyl}piperazin-1-yl)-N,N,6-trimethylpyrimidin-2-amine], in assay [1], the inhibition at 25 µM was around 70%. Further, the inhibition at 10 µM in the assay on pIRF3, pSTING was in the range of 90 to 100%. Also, the inhibition at 5 µM in assay [2] was 42%.
In the case of `COc1ccc(-c2nc(CN3CCN(c4nc(C)nc(N(C)C)n4)CC3)cs2)cc1OC` [Compound W4, 4-(4-{[2-(3,4-dimethoxyphenyl)-1,3-thiazol-4-yl]methyl}piperazin-1-yl)-N,N,6-trimethyl-1,3,5-triazin-2-amine], the inhibition at 10 µM in the assay on pIRF3, pSTING is below 10%. The inhibition at 5 µM in assay [2] turned out to be 4%.
`CCc1ccc(-c2nc(CN3CCN(c4cc(C)nc(N(C)C)n4)CC3)cs2)cc1` [Compound W15]: the inhibition at 25 µM in assay [1] lay in the range of 90 to 100%. In addition, the inhibition at 10 µM in the assay with pIRF3, pSTING was in the range of 90 to 100%. Further, the inhibition at 5 µM in assay [2] worked out at 69%.
With `COc1ccc(-c2nc(CN3CCN(c4cc(C)nc(N(C)C)n4)CC3)cs2)cc1OC` [Compound W3, 4-(4-{[2-(3,4-dimethoxyphenyl)-1,3-thiazol-4-yl]methyl}piperazin-1-yl)-N,N,6-trimethylpyrimidin-2-amine], the inhibition at 25 µM in assay [1] was in the range of 40 to 50%. For the same compound, the inhibition at 10 µM with pIRF3, pSTING was 40 to 50%. In addition, the inhibition at 5 µM in assay [2] is -37%.
